Columns and labels:
CDK12/CycK = CDK12/CycK (Homo sapiens, UniProt Q9NYV4); assay: Inhibition of CDK12 (ADP-Glo kinase assay); type: biochemical; conditions: 60 nM CDK12/CycK, 30 minutes pre-incubation, 1 μM ATP, 0.5 μM RBER-IRStide substrate, 1 h at 25° C., read-out: CDK12/cyclin K IC50
Summary of the method: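 Compounds pre-incubated 30 min with 60 nM CDK12/CycK in HEPES pH 7.5 buffer with Mg2+/Mn2+, 1% DMSO final. Reaction started with 1 μM ATP and 0.5 μM RBER-IRStide, run 1 h at 25 °C; ADP-Glo luminescence, no-kinase blank subtracted, IC50 from sigmoidal fit of % inhibition.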

DM1 fibroblasts = assay: Nuclear foci assay; type: cell-based; conditions: Fibroblast; DM1 fibroblasts treated for 24 hours, 11 point dilution 20 μM-19 nM, in situ hybridisation with cy3 labelled CAG10 probe
Procedure: DM1 fibroblasts were treated with compounds in an 11 point dilution series from 20 μM-19 nM for 24 hours. Following treatment, fluorescent in situ hybridisation was performed with a cy3 labelled CAG10 probe, to visualize nuclear foci and cells were analysed on a Molecular Devices plate reader with customised MetaExpress software (Ketley, A. et al. (2014). Hum Mol Genet, 23: 1551-1562). Compounds that reduced nuclear foci in a concentration dependent manner, compared to DMSO treated cells were identified.

Sequence of CDK12/CycK (Q9NYV4 whole entry): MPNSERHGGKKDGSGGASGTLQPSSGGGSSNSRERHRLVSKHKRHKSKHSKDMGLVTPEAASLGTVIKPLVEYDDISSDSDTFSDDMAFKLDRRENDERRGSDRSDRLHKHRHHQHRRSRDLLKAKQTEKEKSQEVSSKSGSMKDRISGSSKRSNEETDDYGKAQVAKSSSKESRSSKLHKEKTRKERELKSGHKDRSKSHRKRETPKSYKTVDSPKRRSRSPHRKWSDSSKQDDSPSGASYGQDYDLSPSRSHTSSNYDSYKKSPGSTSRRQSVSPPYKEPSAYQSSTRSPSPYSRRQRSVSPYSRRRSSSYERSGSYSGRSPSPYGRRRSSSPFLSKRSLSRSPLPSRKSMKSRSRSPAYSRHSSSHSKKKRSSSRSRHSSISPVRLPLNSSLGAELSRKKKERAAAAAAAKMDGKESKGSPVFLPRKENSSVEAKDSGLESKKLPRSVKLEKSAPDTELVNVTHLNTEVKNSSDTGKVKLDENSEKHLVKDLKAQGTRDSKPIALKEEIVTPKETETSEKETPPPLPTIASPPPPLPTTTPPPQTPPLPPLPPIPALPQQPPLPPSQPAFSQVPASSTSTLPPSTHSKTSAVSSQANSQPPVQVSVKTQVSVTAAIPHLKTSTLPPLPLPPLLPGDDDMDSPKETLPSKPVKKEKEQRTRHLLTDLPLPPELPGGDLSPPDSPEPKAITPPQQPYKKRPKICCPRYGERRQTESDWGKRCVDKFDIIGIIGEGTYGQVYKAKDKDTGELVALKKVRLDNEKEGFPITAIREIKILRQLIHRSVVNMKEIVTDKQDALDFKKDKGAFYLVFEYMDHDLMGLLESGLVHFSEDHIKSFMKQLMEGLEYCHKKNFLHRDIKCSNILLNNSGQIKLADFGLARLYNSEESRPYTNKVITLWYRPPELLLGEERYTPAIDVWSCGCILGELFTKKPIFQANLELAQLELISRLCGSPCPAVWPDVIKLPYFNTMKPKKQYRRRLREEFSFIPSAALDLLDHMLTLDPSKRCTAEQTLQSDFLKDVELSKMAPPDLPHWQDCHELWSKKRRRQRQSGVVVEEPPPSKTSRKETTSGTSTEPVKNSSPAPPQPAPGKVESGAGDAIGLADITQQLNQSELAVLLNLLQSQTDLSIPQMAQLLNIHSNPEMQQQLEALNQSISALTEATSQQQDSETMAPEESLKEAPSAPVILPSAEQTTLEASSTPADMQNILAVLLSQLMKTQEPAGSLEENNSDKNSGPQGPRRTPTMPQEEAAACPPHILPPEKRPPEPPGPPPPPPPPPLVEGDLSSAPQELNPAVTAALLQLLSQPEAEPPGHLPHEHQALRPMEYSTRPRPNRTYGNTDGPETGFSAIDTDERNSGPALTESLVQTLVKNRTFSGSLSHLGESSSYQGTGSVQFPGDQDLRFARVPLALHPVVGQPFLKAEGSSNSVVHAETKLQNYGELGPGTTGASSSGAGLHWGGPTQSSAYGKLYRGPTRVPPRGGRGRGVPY
Sequence of CDK12/CycK (O75909 whole entry partner): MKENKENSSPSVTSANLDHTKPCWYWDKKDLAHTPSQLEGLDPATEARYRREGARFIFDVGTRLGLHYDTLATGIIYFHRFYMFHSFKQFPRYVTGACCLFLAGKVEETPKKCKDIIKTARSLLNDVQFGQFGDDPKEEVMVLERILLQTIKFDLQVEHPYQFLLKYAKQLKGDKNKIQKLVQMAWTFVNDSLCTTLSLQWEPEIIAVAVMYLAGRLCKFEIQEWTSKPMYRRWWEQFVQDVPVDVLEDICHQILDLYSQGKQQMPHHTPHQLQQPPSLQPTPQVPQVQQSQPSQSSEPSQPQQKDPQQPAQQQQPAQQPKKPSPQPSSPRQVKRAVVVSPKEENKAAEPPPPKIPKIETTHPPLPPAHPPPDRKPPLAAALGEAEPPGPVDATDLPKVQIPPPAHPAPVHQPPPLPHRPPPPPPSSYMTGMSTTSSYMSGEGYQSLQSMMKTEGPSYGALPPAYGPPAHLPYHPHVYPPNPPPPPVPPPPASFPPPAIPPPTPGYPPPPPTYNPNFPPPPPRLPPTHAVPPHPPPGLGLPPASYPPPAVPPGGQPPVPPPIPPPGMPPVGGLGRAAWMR

Compound | IC50 (CDK12/CycK) | IC50 (DM1 fibroblasts)
C=CC(=O)N1CC2(CC2)C[C@H]1C(=O)NCCc1cc2c(-c3cnn4ncccc34)ccnc2[nH]1 [Example 208, (S)-5-Acryloyl-N-(2-(4-(pyrazolo[1,5-b]pyridazin-3-yl)-1H-pyrrolo[2,3-b]pyridin-2-yl)ethyl)-5-azaspiro[2.4]heptane-6-carboxamide] | < 0.1 µM | 1 to 10 µM
N#CN1CCC[C@H](C(=O)NCCc2cc3c(-c4cnn5ncccc45)ccnc3[nH]2)C1 [Example 210, (S)-1-cyano-N-(2-(4-(pyrazolo[1,5-b]pyridazin-3-yl)-1H-pyrrolo[2,3-b]pyridin-2-yl)ethyl)piperidine-3-carboxamide] | 0.1 to 1 µM | 1 to 10 µM
C=CC(=O)NC(Cc1ccccc1)C(=O)NCCc1cc2c(-c3cnn4ncccc34)ccnc2[nH]1 (stereo not shown) [Example 211, N-(1-Oxo-3-phenyl-1-((2-(4-(pyrazolo[1,5-b]pyridazin-3-yl)-1H-pyrrolo[2,3-b]pyridin-2-yl)ethyl)amino)propan-2-yl)acrylamide] | 0.1 to 1 µM | 1 to 10 µM
C=CC(=O)NC(C)C(=O)NCCc1cc2c(-c3cnn4ncccc34)ccnc2[nH]1 (stereo not shown) [Example 212, N-(1-oxo-1-((2-(4-(pyrazolo[1,5-b]pyridazin-3-yl)-1H-pyrrolo[2,3-b]pyridin-2-yl)ethyl)amino)propan-2-yl)acrylamide] | 0.1 to 1 µM | 1 to 10 µM
C=CC(=O)N1CCC[C@H]1C(=O)OCCc1cc2c(-c3cnn4ncccc34)ccnc2[nH]1 [Example 213, 2-(4-(Pyrazolo[1,5-b]pyridazin-3-yl)-1H-pyrrolo[2,3-b]pyridin-2-yl)ethyl acryloyl-L-prolinate] | 0.1 to 1 µM | < 1 µM

— US11407767B2, “Heterocyclyl substituted pyrrolopyridines that are inhibitors of the CDK12 kinase” (The University of Nottingham, priority 2017, dated 2022)
